{
  "source": "patent US20210100247A1",
  "about": "“HARMFUL ORGANISM CONTROL METHOD AND HARMFUL ORGANISM CONTROL COMPOSITION” (priority 2018, published 2021)",
  "test_system": "Tetranychus urticae",
  "assay": "whole plant or invertebrate",
  "details": "for Effectiveness Measured Value: next generation survivors, 10 days after spraying; for Corrected Adult Insect Mortality Rate Measured Value: adults, 3 days after spraying",
  "method": "Effecacy Confirmation Test on Tetranychus urticae\nEight or ten adult female Tetranychus urticae mites were inoculated on the kidney bean leaves placed in petri dishes on the day before treating with the chemical solutions.\nA flowable agent containing the compound A was diluted with a solution obtained by diluting Rabiden 3S 5,000 times in water to prepare a chemical solution A containing the compound A in which the concentration of the compound A is twice the concentration shown in Tables 1 to 4.\nA preparation product containing the compound B was diluted with a solution obtained by diluting Rabiden 3S 5,000 times in water to prepare a chemical solution B containing the compound B in which the concentration of the compound B is twice the concentration shown in Tables 1 to 4.\nTest number a: Tebufenpyrad: Pyranica EW (manufactured by Nippon Soda Co., Ltd.) Test numbers b and h: Hexythiazox: Nissolan wettable powder (manufactured by Nippon Soda Co., Ltd.) Test number c: Fenpyroximate: Danitron flowable (manufactured by Nippon Pesticides Co., Ltd.) Test number d: Propargite: Omite wettable powder (manufactured by Nippon Pesticides Co., Ltd.) Test number e: Tolfenpyrad: Hachi-Hachi flowable (manufactured by OAT Agrio) Test number f: Abamectin: Agrimec (manufactured by Syngenta Japan) Test number g: Etoxazole: Baroque flowable (manufactured by Kyoyu Agri co., Ltd.) Test number i: Thiodicarb: Lavin wettable powder 75 (manufactured by Bayer Crop Science) Test number j: Spinosad: Spinoace granule wettable powder (Kumiai Chemical Industry Co., Ltd.) Test number k: Isoxathion: Carphos emulsion (manufactured by Nippon Soda Co., Ltd.) Test number l: Acetamiprid: Mospilan water-soluble agent (manufactured by Nippon Soda Co., Ltd.) Test number m: Fipronil: Prince flowable (manufactured by BASF) Test number n: Tralomethrin: Scout flowable agent (manufactured by Nippon Soda Co., Ltd.) Test number o: BT agent (live spore of Bacillus thuringiensis and crystal toxin produced): Zentari granule wettable powder (manufactured by Kitako Chemical Industry Co., Ltd.) Test number p: Buprofezin: Applaud flowable (manufactured by Nippon Pesticides Co., Ltd.) Test number q: Cyromazine: Triggered liquid (manufactured by Syngenta Japan) Test number r: Tebufenozide: Romdan Flowable (manufactured by Nippon Soda Co., Ltd.) Test number s: Flubendiamide: Phoenix granule wettable powder (Nippon Agricultural Co., Ltd.) Test number t: Pyridalyl: pleo flowable (manufactured by Kyoto Agri) Test number u: Lufenuron: Match emulsion (manufactured by Syngenta Japan) Test number v: Flonicamid: Ulala DF (made by Ishihara Bioscience) Test number w: Chlorfenapyr: Kotetsu Flowable (Nippon Pesticides Co., Ltd.) Test number x: Indoxacarb: Tornado flowable (made by Kumiai Chemical Industry Co., Ltd.) Test number y: Diafenthiuron: Gamba wettable powder (manufactured by Syngenta Japan) Test number z: Thiocyclam: Ebisect wettable powder (manufactured by Mitsui Chemicals Agro) Test number aa: Emamectin-benzoate: Affirm emulsion (Syndienta Japan) Test number ab: Pyridaben: Sanmite wettable powder (manufactured by Nissan Chemical Co., Ltd.)\nA mixed solution obtained by mixing equal amounts of the chemical solution A and the chemical solution B was sprayed onto a petri dish containing kidney bean leaves inoculated with Tetranychus urticae mites at an amount of 2 mg per cm^2 using a rotary spray tower (AB mixed-component area).\nThe chemical solution A and the chemical solution B were each diluted 2-fold with a solution obtained by diluting Labiden 3S 5000 times in water to obtain a chemical solution A′ and a chemical solution B′.\nThe chemical solution A′ was sprayed onto another petri dish containing kidney bean leaves inoculated with Tetranychus urticae mites at an amount of 2 mg per cm^2 using a rotary spray tower (A single-component area).",
  "key": {"[1]": {"details": "Tetranychus urticae, in Phaseolus vulgaris, 240 h, read-out: Effectiveness Measured Value"}},
  "note": "“And” between values parts separate entries of the source, which are not always exact repeats. Equal entries are not always repeated.",
  "data": [
    {"compound": "C/C(=N\\C#N)N(C)Cc1ccc(Cl)nc1", "note": "[acetamiprid]", "values": [
      {"measurement": "pest or weed control at 100 µg/mL", "setting": "[1]", "value": 7, "unit": "%"}
    ]},
    {"compound": "CCCOc1cc(C(F)(F)F)ccc1O[C@H]1C[C@H]2CCC[C@@H](C1)N2Oc1ccc(C(F)(F)F)cn1", "note": "[acynonapyr, 3-endo-[2-propoxy-4-(trifluoromethyl)phenoxy]-9-[5-(trifluoromethyl)-2-pyridyloxy]-9-azabicyclo[3.3.1] nonan]", "values": [
      {"measurement": "Effectiveness Measured Value", "setting": "single component 2.0 ppm", "value": "49% and 51% and 60% and 68% and 46%"}
    ]},
    {"compound": "CC(C)N1C(=O)N(c2ccccc2)CS/C1=N\\C(C)(C)C", "note": "[buprofezin]", "values": [
      {"measurement": "pest or weed control at 200 µg/mL", "setting": "[1]", "value": 17, "unit": "%"}
    ]},
    {"compound": "CCOCn1c(-c2ccc(Cl)cc2)c(C#N)c(Br)c1C(F)(F)F", "note": "[chlorfenapyr]", "values": [
      {"measurement": "pest or weed control at 50 µg/mL", "setting": "[1]", "value": 46, "unit": "%"}
    ]},
    {"compound": "Nc1nc(N)nc(NC2CC2)n1", "note": "[cyromazine]", "values": [
      {"measurement": "pest or weed control at 87 µg/mL", "setting": "[1]", "value": 8, "unit": "%"}
    ]},
    {"compound": "CC(C)c1cc(Oc2ccccc2)cc(C(C)C)c1NC(=S)NC(C)(C)C", "note": "[diafenthiuron]", "values": [
      {"measurement": "pest or weed control at 25 µg/mL", "setting": "[1]", "value": 7, "unit": "%"}
    ]},
    {"compound": "CCOc1cc(C(C)(C)C)ccc1C1COC(c2c(F)cccc2F)=N1", "note": "(stereo not drawn) [etoxazole]", "values": [
      {"measurement": "pest or weed control at 1.6 µg/mL", "setting": "[1]", "value": 85, "unit": "%"}
    ]},
    {"compound": "Cc1nn(C)c(Oc2ccccc2)c1C=NOCc1ccc(C(=O)OC(C)(C)C)cc1", "note": "[fenpyroximate]", "values": [
      {"measurement": "pest or weed control at 50 µg/mL", "setting": "[1]", "value": 28, "unit": "%"}
    ]},
    {"compound": "N#Cc1nn(-c2c(Cl)cc(C(F)(F)F)cc2Cl)c(N)c1[S+]([O-])C(F)(F)F", "note": "(stereo not drawn) [fipronil]", "values": [
      {"measurement": "pest or weed control at 22 µg/mL", "setting": "[1]", "value": 2, "unit": "%"}
    ]},
    {"compound": "N#CCNC(=O)c1cnccc1C(F)(F)F", "note": "[flonicamid]", "values": [
      {"measurement": "Corrected Adult Insect Mortality Rate Measured Value", "setting": "single component 100 ppm", "value": 0, "unit": "%"},
      {"measurement": "Effectiveness Measured Value", "setting": "single component 100 ppm", "value": 3, "unit": "%"}
    ]},
    {"compound": "Cc1cc(C(F)(C(F)(F)F)C(F)(F)F)ccc1NC(=O)c1cccc(I)c1C(=O)NC(C)(C)CS(C)(=O)=O", "note": "[flubendiamide]", "values": [
      {"measurement": "pest or weed control at 100 µg/mL", "setting": "[1]", "value": 3, "unit": "%"}
    ]},
    {"compound": "C[C@@H]1[C@@H](c2ccc(Cl)cc2)SC(=O)N1C(=O)NC1CCCCC1", "note": "[hexythiazox]", "values": [
      {"measurement": "pest or weed control at 1.6 µg/mL", "setting": "[1]", "value": 42, "unit": "%"},
      {"measurement": "pest or weed control at 12.5 µg/mL", "setting": "[1]", "value": 90, "unit": "%"}
    ]},
    {"compound": "COC(=O)N(C(=O)N1CO[C@@]2(C(=O)OC)Cc3cc(Cl)ccc3C2=N1)c1ccc(OC(F)(F)F)cc1", "note": "[indoxacarb]", "values": [
      {"measurement": "Corrected Adult Insect Mortality Rate Measured Value", "setting": "single component 50 ppm", "value": 0, "unit": "%"},
      {"measurement": "Effectiveness Measured Value", "setting": "single component 50 ppm", "value": 0, "unit": "%"}
    ]},
    {"compound": "CCOP(=S)(OCC)Oc1cc(-c2ccccc2)on1", "note": "[isoxathion]", "values": [
      {"measurement": "pest or weed control at 500 µg/mL", "setting": "[1]", "value": 50, "unit": "%"}
    ]},
    {"compound": "O=C(NC(=O)c1c(F)cccc1F)Nc1cc(Cl)c(OC(F)(F)C(F)C(F)(F)F)cc1Cl", "note": "(stereo not drawn) [lufenuron]", "values": [
      {"measurement": "pest or weed control at 100 µg/mL", "setting": "[1]", "value": 14, "unit": "%"}
    ]},
    {"compound": "C#CCOS(=O)OC1CCCCC1Oc1ccc(C(C)(C)C)cc1", "note": "(stereo not drawn) [propargite]", "values": [
      {"measurement": "pest or weed control at 40 µg/mL", "setting": "[1]", "value": 18, "unit": "%"}
    ]},
    {"compound": "CC(C)(C)c1ccc(CSc2cnn(C(C)(C)C)c(=O)c2Cl)cc1", "note": "[pyridaben]", "values": [
      {"measurement": "pest or weed control at 200 µg/mL", "setting": "[1]", "value": 0, "unit": "%"}
    ]},
    {"compound": "FC(F)(F)c1ccc(OCCCOc2c(Cl)cc(OCC=C(Cl)Cl)cc2Cl)nc1", "note": "[pyridalyl]", "values": [
      {"measurement": "pest or weed control at 100 µg/mL", "setting": "[1]", "value": 11, "unit": "%"}
    ]},
    {"compound": "CCc1ccc(C(=O)NN(C(=O)c2cc(C)cc(C)c2)C(C)(C)C)cc1", "note": "[tebufenozide]", "values": [
      {"measurement": "pest or weed control at 200 µg/mL", "setting": "[1]", "value": 10, "unit": "%"}
    ]},
    {"compound": "CCc1nn(C)c(C(=O)NCc2ccc(C(C)(C)C)cc2)c1Cl", "note": "[tebufenpyrad]", "values": [
      {"measurement": "pest or weed control at 100 µg/mL", "setting": "[1]", "value": 64, "unit": "%"}
    ]},
    {"compound": "CN(C)C1CSSSC1", "note": "[thiocyclam]", "values": [
      {"measurement": "pest or weed control at 500 µg/mL", "setting": "[1]", "value": 18, "unit": "%"}
    ]},
    {"compound": "CS/C(C)=N\\OC(=O)N(C)SN(C)C(=O)O/N=C(\\C)SC", "note": "[thiodicarb]", "values": [
      {"measurement": "pest or weed control at 750 µg/mL", "setting": "[1]", "value": 0, "unit": "%"}
    ]},
    {"compound": "CCc1nn(C)c(C(=O)NCc2ccc(Oc3ccc(C)cc3)cc2)c1Cl", "note": "[tolfenpyrad]", "values": [
      {"measurement": "pest or weed control at 150 µg/mL", "setting": "[1]", "value": 4, "unit": "%"}
    ]},
    {"compound": "CC1(C)[C@H](C(=O)O[C@H](C#N)c2cccc(Oc3ccccc3)c2)[C@@H]1C(Br)C(Br)(Br)Br", "note": "(stereo partly drawn) [tralomethrin]", "values": [
      {"measurement": "pest or weed control at 9.3 µg/mL", "setting": "[1]", "value": 1, "unit": "%"}
    ]},
    {"compound": "abamectin", "values": [
      {"measurement": "Corrected Adult Insect Mortality Rate Measured Value", "setting": "single component 0.017 ppm", "value": 0, "unit": "%"},
      {"measurement": "Effectiveness Measured Value", "setting": "single component 0.017 ppm", "value": 11, "unit": "%"}
    ]},
    {"compound": "emamectin-benzoate", "values": [
      {"measurement": "Corrected Adult Insect Mortality Rate Measured Value", "setting": "single component 0.02 ppm", "value": 40, "unit": "%"},
      {"measurement": "Effectiveness Measured Value", "setting": "single component 0.02 ppm", "value": 17, "unit": "%"}
    ]},
    {"compound": "spinosad", "values": [
      {"measurement": "Corrected Adult Insect Mortality Rate Measured Value", "setting": "single component 40 ppm", "value": 0, "unit": "%"},
      {"measurement": "Effectiveness Measured Value", "setting": "single component 40 ppm", "value": 0, "unit": "%"}
    ]}
  ]
}
